Assay results taken from patent publication US20250352539A1, “COMBINATION THERAPY FOR TREATING CANCER” (AstraZeneca AB, priority 2022, published 2025).

Tests used:
Type in all cases: cell-based
SJ-G2 WT = assay: 7 days treatment combination assay in glioblastoma cell lines (Cell Titer Glow 2.0); conditions: 168 h, paediatric GBM
Procedure: (§1) The assay was carried out in the following glioblastoma cell lines: • U87 • U87 R132H • T98G • SJ-G2 ctrl • SJ-G2 IDH using AZD6738 and AZD9574
(§2) The cells were seeded the day before drug treatment in 150 μl per well of 96-well plate. For SJ-G2 cells, the plates were coated with poly-Lysine solution for 15 minutes, washed twice with sterile water and dried for 1 hour.
(§3) The seeding numbers were (cells per well): U87-500; T98G-500; SJ-G2 ctrl-1000; SJ-G2 IDH.
(§4) The compounds were added via a drug dispenser according to the following scheme:
(§5) after 7 Days: • (a) for SJ-G2, 75 μl Cell Titer Glow 2.0 solution (Promega) was added and incubated for 15 minutes at 37° C. The cells were then read using a plate reader. • (b) for U87 and T98G, 75 μl of 37% formaldehyde was added and fixed for 20 minutes at room temperature. This was then washed twice with PBS, followed by Hoeschst staining for 1 hour at room temperature (Hoeschst 1:10000 in PBS). This was then washed twice in PBS and the plates sealed. The plates were then imaged on Cell Insight with 10× magnification at the 25 position. Hoeschst positive nuclei were identified as objects, and cell survival was analysed by counting objects (Hoeschst positive nuclei) with the corresponding settings for U87 or T98G.
(§6) An analysis of drug synergy was then carried out to yield a HSA score

SJ-G2 IDHm = assay: as above; conditions: 168 h, paediatric GBM
Procedure: as §1, §2, §3, §4, §5, §6

[1] = tested on: SUM149PT 53BP1 WT (CNTR) cells; assay: Clonogenic proliferation assay (14 days, SRB); conditions: Homo sapiens; SUM149PT CNTR; monotherapy; read-out: IC50, clonogenic growth
Procedure: (§7) Parental BRCA1 mutant SUM149PT breast cancer cell line (Elstrodt 2006) were obtained from AstraZeneca Cell Bank at Alderley Park, Macclesfield. Cells were routinely grown in Ham's F12 media containing 5% foetal calf serum, 1% glutamine (2 mM), 500 ng/ml hydrocortisone and 5% insulin. SUM149PT 53BP1 WT (CNTR) and 53BP1 null (KO) cell pools were generated by CRISPR-Cas9 technology. Short guide (sg) RNA targeting TP53BP1 on exon 10 (GAGTAGATCGGAAAGCATC) and a non-targeting CNTR guide (GAGTAGATCGGAAAGCATC) were designed and cloned into a lentiviral vector containing a mClover3 cassette for green fluorescence signal and hygromycin cassette for selection (pKLV2-U6gRNA (Bbsl)-EF1a-mClover3-T2A-HygR-W). Lentiviruses were generated from both KO and CNTR (sg) RNA and Cas9 (pKLVEF1a-Cas9Bsd-W) plasmids and parental cells were transduced first with Cas9 lentiviruses followed by blasticidin selection and then with KO and CNTR lentiviruses followed by hygromycin selection. Loss of 53BP1 was verified by analysing 53BP1 protein expression from whole cell lysates by western blotting (Novus, NB100-304, 1:1000 dilution).
(§8) Cells were seeded onto 6-well plates, three replicates per cell line, and 24 hours later the cells were dosed with AZD6738/AZD5305. For monotherapies the cells were dosed with a 6-point concentration response of AZD6738 (0 to 0.64 μM) or AZD5305 (0 to 1 μM). For combination treatments single dose of AZD5305 (10 nM) was used with a 5-point concentration response of AZD6738 (0 to 0.64 μM) for 53BP1 KO cells. Cells were grown for 14 days for colony formation without media changes. Cells were fixed with 10% TCA (Tricloroacetic acid). 14 days after dosing any formed colonies were stained with 0.057% SRB (sulforhodamine B acid), imaged with GelCount™ (Oxford OPTRONIX) at 600 dpi resolution and the stained colony growth intensity was measured using plate reader with OD @[…]. Dose response curves were generated and IC50 concentrations were calculated using GraphPad PRISM software.

[2] = tested on: SUM149PT 53BP1 KO cell pools; assay: Clonogenic proliferation assay (14 days, SRB); conditions: Homo sapiens; SUM149PT 53BP1 KO; monotherapy; read-out: IC50, clonogenic growth
Procedure: as §7, §8

NCI-H1373 = assay: 10-day Cell Titre Glo combination screen; conditions: Homo sapiens; NCI-H1373 lung; monotherapy; read-out: mono AC50
Source text: (§9) The Highest Single Agent (HSA) model is used to determine a combination's synergy score (and is based simply on the intuition that if a combination's effect exceeds the effect level of each of its constituents, there must be some combination interaction). Mathematically, the HSA model describes simple superposition of the single agent curves:
(§10) where CX,Y are the concentrations of the X and Y compound, and IX and IY are inhibitions of the single agents at CX,Y. It is also useful to calculate a volume score (HSA Volume) between the data and the HSA surface to characterise the overall strength of combination effects. Empirically derived combination matrices are compared to their respective HSA additivity models constructed from experimentally collected single agent dose response curves. Summation of this excess additivity across the dose response matrix is referred to HSA Volume.
(§11) Potency shifting can also be scored using combination index (CI). For a chosen iso-effect level (ICut), CI is calculated as: […]
(§12) where (CX/ECX) for a particular data point is the ratio of the X compound's measured concentration to its effective concentration at the chosen effect level. The CI is a rough estimate of how much drug was needed in combination relative to the single agent doses required to achieve the chosen effect level. CI values in the range of 0.5-0.7 are typical for in vitro measurements of current clinical combinations. The CI error (σCI) is calculated using standard error propagation through the CI calculation based on the isobologram errors.
(§13) This combination screen was a 10-day assay using Cell Titre Glo as the readout for viability.
(§14) The assay was performed in 384 well plates, with 1 cell line and 4 drug-drug combinations per plate dosed in a 6×6 matrix. A day zero reading was measured to determine growth inhibition. GenedataScreener was used to input the raw values for every well, and the software was programmed to normalise the values to the day zero and DMSO control values.
(§15) The CellTiter-Glo® Luminescent Cell Viability Assay is a homogeneous method to determine the number of viable cells in culture based on quantitation of the ATP present, which signals the presence of metabolically active cells. It relies on the properties of a proprietary thermostable luciferase (Ultra-Glo™ Recombinant Luciferase), which generates a stable “glow-type” luminescent signal and improves performance across a wide range of assay conditions.
(§16) The following information was reported: Synergy scores (HSA); combination index values; AC50 (half-maximal activity concentration) monotherapy values.

CAL-51 = assay: 10-day Cell Titre Glo combination screen; conditions: Homo sapiens; CAL-51 breast; monotherapy; read-out: mono AC50
Source text: as §9, §10, §11, §12, §13, §14, §15, §16

NCI-H522 = assay: 10-day Cell Titre Glo combination screen; conditions: Homo sapiens; NCI-H522 lung; monotherapy; read-out: mono AC50
Source text: as §9, §10, §11, §12, §13, §14, §15, §16

SUM52PE = assay: 10-day Cell Titre Glo combination screen; conditions: SUM52PE breast; monotherapy; read-out: mono AC50
Source text: as §9, §10, §11, §12, §13, §14, §15, §16

C[C@@H]1COCCN1c1cc(C2([S@](C)(=N)=O)CC2)nc(-c2ccnc3[nH]ccc23)n1 [AZD6738, 4-{4-[(3R)-3-Methylmorpholin-4-yl]-6-[1-((R)—S-methylsulfonimidoyl)cyclopropyl]pyrimidin-2-yl}-1H-pyrrolo[2,3-b]-pyridine]
IC50 (SJ-G2 WT): 160 nM | IC50 (SJ-G2 IDHm): 308 nM | IC50 [1]: ~630 nM | IC50 [2]: ~630 nM | AC50 (NCI-H1373): 1240 nM | AC50 (CAL-51): 1360 nM | AC50 (NCI-H522): 5650 nM | AC50 (SUM52PE): 6510 nM
